# Patent US12280087B2, “Composition comprising self-assembling peptides for use in treatment of gingivitis, periodontitis and/or peri-implantitis” (Credentis AG, priority 2016, dated 2025)
# Where no end group is shown, it is not given here. [ ]: non-standard residue; d: D form. Orn = NCCC[C@H](N)C(=O)O
# Legend:
# [1] = tested on: P. gingivalis; assay: Release of antibiotics from self-assembling peptide gels, bacterial growth by turbidity OD600; assay type: cell-based; settings: antibiotic 150 mg/ml in SAP gels 15 mg/ml (P11-4, P11-13/14, P11-28/29); OD600 normalized to gel without antibiotic; over 120 hours
# Method: (§1) FIG. 1: Bacterial density after release of antibiotics (150 mg/ml) from self-assembling peptide gels (15 mg/ml), and the impact thereof to the growth of P. gingivalis (A-C) and S. sanguinis (D-F). Circles: metronidazol, stars: tetracycline, triangle: ciprofloxacin, squares: doxycycline hyclate; control: gel without API
# (§2) Hydrogels comprising self-assembling peptides with (150 mg/ml) and without antibiotics were formed by dissolving the respective peptides at a concentration of 15 mg/ml or equimolar for combination SAP in a concentration of −10 mg*ml-1 as follows:
# (§3) For the gels formed by peptides P11-13 and P11-14: or for P11-28 and P11-29, equimolar solutions of peptides were prepared in a well plate, and pH corrected to physiological conditions, resulting in a gel.
# (§4) Furthermore 100 uL/well of a defined anaerobic P. gingivalis or aerobic S. anguines bacterial culture (10^7 CFU/ml e.g. 990 μl BHI medium, 10 μl 10^8 CFU/ml bacteria suspension) were added onto the gels. Impact on growth was assessed by measuring turbidity at OD600 nm. Data obtained with antibiotics were normalized to control (gel+bacteria+medium without antibiotics) to analyse the relative bacterial density. 50 μl/well of medium were added every second day.
# [2] = tested on: S. sanguinis; assay: as above; assay type: cell-based; settings: antibiotic 150 mg/ml in SAP gels 15 mg/ml (P11-4, P11-13/14, P11-28/29); OD600 normalized to gel without antibiotic; over 120 hours
# Method: as §1, §2, §3, §4
# [3] = Mechanical properties (G′) of SAP gels in different ions and buffer systems; assay type: physicochemical
# Method: FIG. 5: Mechanical properties are dependent on the presence of different ions and buffer systems. […] Since NO3− are monovalent ions, and ionic strength of the solution was below 130 mM, P11-8 self-assembling was slowed down. On the other hand self-assembling kinetic of P11-8 with DMEM and NaCl solution is very similar.
# [4] = tested on: PDLF cells; assay: Stability of SAP matrices in contact with PDLF cells or medium (peptide in supernatant, UV-spectroscopy); assay type: cell-based; settings: 20 mg/ml P11-4, 15 mg/ml others; 2000 PDLF cells/well or medium; 24 h
# Method: Different SAP hydrogels or matrices (20 mg/ml for P11-4; 15 mg/ml for […]) were contacted with 2000 PDLF cells/well or medium. Degradation was measured after 24 h by detection of peptide concentration in the supernatant by UV-spectroscopy. No significant effect of the cells was seen.
# [5] = tested on: periodontal ligament fibroblasts (PDLF); assay: In vitro periodontal pocket model, migration of PDLF out of donor compartment; assay type: cell-based, human; settings: P11-4 20 mg/ml, all others 15 mg/ml
# Method: FIG. 6: Cell migration of a 15 mg/ml P11-4 gel on a periodontal ligament model after 8 days of incubation. Human Periodontal Ligament cells were placed in a cell pool (A) and the SAP gel (C) placed on the human dentin (B). The cell/SAP-gel/dentin was then incubated for 8 days and visually assessed resulting in migration of up to 5 mm. Scale bar: 1 mm
# An in vitro model of a periodontal pocket (Meyer et al., 2016) was used to assess the migration distance of periodontal ligament fibroblasts (PDLF) out of the donor compartment. In brief, to determine early processes of tissue healing, three endpoints were investigated: Adhesion, proliferation and migration of human primary periodontal ligament fibroblasts (PDLF, ScienCell). In order to mimic the in vivo conditions as close as possible, pure bovine dentin surface served as underlying structure. Adhesion and proliferation of PDLF was assessed in a time dependent manner using ATP viability Kit (Promega). Visualization of the cells on the matrix was realized by SEM. For evaluation of cell adhesion and proliferation, Emdogain® (Straumann) was used as a positive control, as it has already proven its efficacy to promote periodontal regeneration in vivo. […]
# PDLF cells were allowed to migrate in different SAP or collagen hydrogels (P11-4: 20 mg/ml; all others 15 mg/ml), as explained in Example L. Migration distances were analyzed after 4 and 8 days. […]
# [6] = tested on: SAOS-2 cells (Sarcoma osteogenic); assay: Cell viability on SAP hydrogels compared to Emdogain (PrestoBlue); assay type: cell-based
# Method: (§5) Left column 15 mg/ml SAP, middle column: 20 mg/ml SAP, right column 30 mg/ml SAP for each SAP, for Emdogain®, the concentration is constant at 30 mg/ml, and the three columns show 24, 48 and 96 h administration. […] Collagen (1.5 mg/ml) was used as a test system control. Cell proliferation was measured by the metabolic conversion of PrestoBlue viability reagent. Data were normalized in respect to values measured at day 1.
# (§6) Proliferation of hPDLF (periodontal ligament fibroblasts) and SAOS-2 (Sarcoma osteogenic) cells on self-assembling peptides (P11-4, P11-8, P11-13 and P11-14, 15 mg/ml SAP, 20 mg/ml SAP, 30 mg/ml SAP respectively) was compared to the current gold standard Emdogain® and/or collagen after 24, 48 and 96 h. For Emdogain®, the concentration is constant at 30 mg/ml. Viability was measured by PrestoBlue® Cell Viability Reagent A13261.
# [7] = tested on: hPDLF cells (human periodontal ligament fibroblasts); assay: as above; assay type: cell-based; settings: all concentrations tested (15, 20, 30 mg/ml SAP); 24, 48, 96 h; Emdogain 30 mg/ml
# Method: as §5, §6
# [8] = Self-assembly at neutral pH, visual appearance; assay type: physicochemical; settings: 1 part RADA16 solution (1 wt % in water) added to 1 part DMEM, neutral pH 7
molecule,measurement,setting,value
Cc1ncc([N+](=O)[O-])n1CCO [metronidazole],impact of antibiotic released from SAP gel on bacterial growth (relative bacterial density),[1],low effectivity in most systems at this concentration
same,impact of antibiotic released from SAP gel on bacterial growth (relative bacterial density),[2],low effectivity in most systems at this concentration
"QQRFOWOFEQQ (QQRF[Orn]W[Orn]FEQQ) [P11-8, self-assembling peptide]",storage modulus G′ / self-assembling kinetic of gel,[3]; DMEM pH 7.4 versus Tris-NaCl,very similar
same,storage modulus G′ of gel,"[3]; artificial saliva (Tris 120 mM, Ca(NO3) 4 mM, KH2PO4 2.4 mM, pH 7.2) versus Tris-NaCl, DMEM, Tris MgSO4",lowest storage modulus was achieved with artificial saliva
same,degradation (peptide concentration in the supernatant),[4],degraded slightly more than the other SAP
same,"homogenous migration of PDLF cells, visually",[5],most obvious
same,migration distance of PDLF cells compared to collagen,[5]; after 4 days,slightly increased compared to collagen
same,cell viability compared to Emdogain,[6]; 30 mg/ml SAP,strongly increased
same,cell viability compared to Emdogain,"[6]; the other concentrations (15, 20 mg/ml SAP)",slightly increased or about equal
same,cell viability compared to Emdogain,[7],increased cell viability of hPDLF cells compared to Emdogain®
RADA16,self-assembly,[8],No self-assembling is visible
